Data from patent publication US6355799B1, “Substituted benzene compounds, process for their preparation, and herbicidal and defoliant compositions containing them” (ISK Americas Incorporated, priority 1997, dated 2002).

Key:
Format in all cases: in vivo
[1] = test system: redroot pigweed (Amaranthus retroflexus, AMARE); test: Pre-emerge test, greenhouse herbicide activity screening; settings: pre-emerge, rated 14 days after application, 0 = no damage, 100 = complete death
How it was run: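 Compounds in acetone were track-sprayed at 187 l/ha, 15–1000 g ai/ha, onto sandy loam pots. Pre-emerge seeds were sown one day before spraying, with surface watering afterwards. Post-emerge plants were at the 2–3 leaf stage and sprayed with 0.25% v/v non-ionic surfactant. Injury was rated 0–100 at 14 days.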

[2] = test system: barnyardgrass (Echinochloa crus-galli, ECHCG); test: as above; settings: pre-emerge, rated 14 days after application, 0 = no damage, 100 = complete death
How it was run: (§1)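 Plants grown in 10 cm pots of sandy loam mix received acetone-dissolved compounds through a moving flat-fan nozzle. Doses ranged from 15 to 1000 g ai/ha. Pre-emerge pots were seeded one day earlier, post-emerge pots 8–21 days earlier. Fourteen days on, each pot was graded 0–100 for damage.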

[3] = test system: green foxtail (Setaria viridis, SETVI); test: as above; settings: pre-emerge, rated 14 days after application, 0 = no damage, 100 = complete death
How it was run: as §1

[4] = test system: ivyleaf morningglory (Ipomoea hederacea, IPOHE); test: as above; settings: pre-emerge, rated 14 days after application, 0 = no damage, 100 = complete death
How it was run: as §1

[5] = test system: johnsongrass (Sorghum halepense, SORHA); test: as above; settings: pre-emerge, rated 14 days after application, 0 = no damage, 100 = complete death
How it was run: as §1

[6] = test system: lambsquarters (Chenopodium album, CHEAL); test: as above; settings: pre-emerge, rated 14 days after application, 0 = no damage, 100 = complete death
How it was run: as §1

[7] = test system: large crabgrass (Digitaria sanguinalis, DIGSA); test: as above; settings: pre-emerge, rated 14 days after application, 0 = no damage, 100 = complete death
How it was run: as §1

[8] = test system: sicklepod (Cassia obtusifolia, CASOB); test: as above; settings: pre-emerge, rated 14 days after application, 0 = no damage, 100 = complete death
How it was run: as §1

[9] = test system: velvetleaf (Abutilon theophrasti, ABUTH); test: as above; settings: pre-emerge, rated 14 days after application, 0 = no damage, 100 = complete death
How it was run: as §1

[10] = test system: field corn (Zea mays L., var. Dekalb 535, CORN); test: Pre-emerge test, crop safety; settings: pre-emerge, rated 14 days after application, 0 = no damage, 100 = complete death
How it was run: as §1

[11] = test system: upland rice (Oryza sp., var. Tebonnet, RICE); test: Pre-emerge test, crop safety; settings: pre-emerge, rated 14 days after application, 0 = no damage, 100 = complete death
How it was run: as §1

[12] = test system: barnyardgrass (Echinochloa crus-galli, ECHCG); test: Post-emerge test, greenhouse herbicide activity screening; settings: phytotoxicity rating 0-100 (0 no damage, 100 complete death), 14 days after application
How it was run: (§2)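 Compounds in acetone were track-sprayed at 15-1000 g ai/ha (187 l/ha) on sandy loam pots: pre-emerge one day after seeding, post-emerge at 2-3 leaf stage with 0.25% v/v non-ionic surfactant. Phytotoxicity was rated 14 days later on a 0 (no damage) to 100 (complete death) scale.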

[13] = test system: common ragweed (Ambrosia artemisizfolia L., AMBEL); test: as above; settings: phytotoxicity rating 0-100 (0 no damage, 100 complete death), 14 days after application
How it was run: as §2

[14] = test system: green foxtail (Setaria viridis, SETVI); test: as above; settings: phytotoxicity rating 0-100 (0 no damage, 100 complete death), 14 days after application
How it was run: as §2

[15] = test system: ivyleaf morningglory (Ipomoea hederacea, IPOHE); test: as above; settings: phytotoxicity rating 0-100 (0 no damage, 100 complete death), 14 days after application
How it was run: as §2

[16] = test system: johnsongrass (Sorghum halepense, SORHA); test: as above; settings: phytotoxicity rating 0-100 (0 no damage, 100 complete death), 14 days after application
How it was run: as §2

[17] = test system: lambsquarters (Chenopodium album, CHEAL); test: as above; settings: phytotoxicity rating 0-100 (0 no damage, 100 complete death), 14 days after application
How it was run: as §2

[18] = test system: large crabgrass (Digitaria sanguinalis, DIGSA); test: as above; settings: phytotoxicity rating 0-100 (0 no damage, 100 complete death), 14 days after application
How it was run: as §2

[19] = test system: redroot pigweed (Amaranthus retroflexus, AMARE); test: as above; settings: phytotoxicity rating 0-100 (0 no damage, 100 complete death), 14 days after application
How it was run: as §2

[20] = test system: sicklepod (Cassia obtusifolia, CASOB); test: as above; settings: phytotoxicity rating 0-100 (0 no damage, 100 complete death), 14 days after application
How it was run: as §2

[21] = test system: velvetleaf (Abutilon theophrasti, ABUTH); test: as above; settings: phytotoxicity rating 0-100 (0 no damage, 100 complete death), 14 days after application
How it was run: as §2

[22] = test system: field corn (Zea mays L., var. Dekalb 535, CORN); test: Post-emerge test, crop safety; settings: phytotoxicity rating 0-100 (0 no damage, 100 complete death), 14 days after application
How it was run: (§3)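 Each test used a mechanized track sprayer delivering 187 l/ha of acetone solution at 15–1000 g ai/ha. Post-emerge foliage at 2–3 leaves was treated with added 0.25% v/v non-ionic surfactant and bottom-watered only. Injury was assessed on day 14, where 100 means total kill.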

[23] = test system: upland rice (Oryza sp., var. Tebonnet, RICE); test: Post-emerge test, crop safety; settings: phytotoxicity rating 0-100 (0 no damage, 100 complete death), 14 days after application
How it was run: as §3

## CCOC(=O)C(C)Nc1c(OC)c(Cl)cc(F)c1-n1c(=O)cc(C(F)(F)F)n(C)c1=O (stereo not shown) [Compound 1-55]
[1]; 63 g ai/ha
  Pre-emerge Herbicidal Activity AMARE (phytotoxicity rating, scale 0-100): 70
[1]; 250 g ai/ha
  Pre-emerge Herbicidal Activity AMARE (phytotoxicity rating, scale 0-100): 70
[2]; 63 g ai/ha
  Pre-emerge Herbicidal Activity ECHCG (phytotoxicity rating, scale 0-100): 10
[2]; 250 g ai/ha
  Pre-emerge Herbicidal Activity ECHCG (phytotoxicity rating, scale 0-100): 10
[3]; 63 g ai/ha
  Pre-emerge Herbicidal Activity SETVI (phytotoxicity rating, scale 0-100): 0
[3]; 250 g ai/ha
  Pre-emerge Herbicidal Activity SETVI (phytotoxicity rating, scale 0-100): 0
[4]; 63 g ai/ha
  Pre-emerge Herbicidal Activity IPOHE (phytotoxicity rating, scale 0-100): 0
[4]; 250 g ai/ha
  Pre-emerge Herbicidal Activity IPOHE (phytotoxicity rating, scale 0-100): 0
[5]; 63 g ai/ha
  Pre-emerge Herbicidal Activity SORHA (phytotoxicity rating, scale 0-100): 20
[5]; 250 g ai/ha
  Pre-emerge Herbicidal Activity SORHA (phytotoxicity rating, scale 0-100): 20
[6]; 63 g ai/ha
  Pre-emerge Herbicidal Activity CHEAL (phytotoxicity rating, scale 0-100): 95
[6]; 250 g ai/ha
  Pre-emerge Herbicidal Activity CHEAL (phytotoxicity rating, scale 0-100): 95
[7]; 63 g ai/ha
  Pre-emerge Herbicidal Activity DIGSA (phytotoxicity rating, scale 0-100): 50
[7]; 250 g ai/ha
  Pre-emerge Herbicidal Activity DIGSA (phytotoxicity rating, scale 0-100): 50
[8]; 63 g ai/ha
  Pre-emerge Herbicidal Activity CASOB (phytotoxicity rating, scale 0-100): 0
[8]; 250 g ai/ha
  Pre-emerge Herbicidal Activity CASOB (phytotoxicity rating, scale 0-100): 0
[9]; 63 g ai/ha
  Pre-emerge Herbicidal Activity ABUTH (phytotoxicity rating, scale 0-100): 90
[9]; 250 g ai/ha
  Pre-emerge Herbicidal Activity ABUTH (phytotoxicity rating, scale 0-100): 90
[10]; 63 g ai/ha
  Pre-emerge crop damage CORN (phytotoxicity rating, scale 0-100): 10
[10]; 250 g ai/ha
  Pre-emerge crop damage CORN (phytotoxicity rating, scale 0-100): 10
[11]; 63 g ai/ha
  Pre-emerge crop damage RICE (phytotoxicity rating, scale 0-100): 0
[11]; 250 g ai/ha
  Pre-emerge crop damage RICE (phytotoxicity rating, scale 0-100): 0
[12]; 63 g ai/ha
  Post-emerge Herbicidal Activity ECHCG: 0
[12]; 250 g ai/ha
  Post-emerge Herbicidal Activity ECHCG: 0
[13]; 63 g ai/ha
  Post-emerge Herbicidal Activity AMBEL: 70
[13]; 250 g ai/ha
  Post-emerge Herbicidal Activity AMBEL: 50
[14]; 63 g ai/ha
  Post-emerge Herbicidal Activity SETVI: 0
[14]; 250 g ai/ha
  Post-emerge Herbicidal Activity SETVI: 40
[15]; 63 g ai/ha
  Post-emerge Herbicidal Activity IPOHE: 30
[15]; 250 g ai/ha
  Post-emerge Herbicidal Activity IPOHE: 95
[16]; 63 g ai/ha
  Post-emerge Herbicidal Activity SORHA: 0
[16]; 250 g ai/ha
  Post-emerge Herbicidal Activity SORHA: 0
[17]; 63 g ai/ha
  Post-emerge Herbicidal Activity CHEAL: 0
[17]; 250 g ai/ha
  Post-emerge Herbicidal Activity CHEAL: 20
[18]; 63 g ai/ha
  Post-emerge Herbicidal Activity DIGSA: 0
[18]; 250 g ai/ha
  Post-emerge Herbicidal Activity DIGSA: 30
[19]; 63 g ai/ha
  Post-emerge Herbicidal Activity AMARE: 10
[19]; 250 g ai/ha
  Post-emerge Herbicidal Activity AMARE: 10
[20]; 63 g ai/ha
  Post-emerge Herbicidal Activity CASOB: 10
[20]; 250 g ai/ha
  Post-emerge Herbicidal Activity CASOB: 20
[21]; 63 g ai/ha
  Post-emerge Herbicidal Activity ABUTH: 80
[21]; 250 g ai/ha
  Post-emerge Herbicidal Activity ABUTH: 90
[22]; 63 g ai/ha
  Post-emerge Herbicidal Activity CORN (crop damage): 0
[22]; 250 g ai/ha
  Post-emerge Herbicidal Activity CORN (crop damage): 10
[23]; 63 g ai/ha
  Post-emerge Herbicidal Activity RICE (crop damage): 0
[23]; 250 g ai/ha
  Post-emerge Herbicidal Activity RICE (crop damage): 0
